{
  "source": "PubChem BioAssay (NCI)",
  "key": {"HOP-18 NSCLC": {"tested_on": "HOP-18 NSCLC", "assay": "growth of human tumour cells (NCI), 48 h"}, "LXFL 529 NSCLC": {"tested_on": "LXFL 529 NSCLC", "assay": "growth of human tumour cells (NCI), 48 h"}},
  "note": "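Growth conditions: 96-well plates. Treatment: test compound, 48 hours, 5 concentrations. Analysis: linear interpolation between bracketing concentrations; unreached endpoints set to highest concentration. The concentration for full growth arrest is given as TGI.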",
  "data": [
    {"smiles": "C\\C=C/C=C/C=C/C(=O)O", "values": [
      {"measurement": "TGI", "setting": "HOP-18 NSCLC", "result": "> 100", "unit": "µM"},
      {"measurement": "TGI", "setting": "LXFL 529 NSCLC", "result": "> 100", "unit": "µM"}
    ]}
  ]
}
